Measured values published in PubChem BioAssay AID248 (DTP/NCI, 2004).
Toxic doses and inconclusive results are not listed.

System: L1210 leukemia ip in BDF1 mice, survival T/C
Assay: NCI In Vivo Anticancer Drug Screen. Data for tumor model L1210 Leukemia (intraperitoneal) in B6D2F1 (BDF1) mice
Settings: endpoint: mean survival time, higher = longer survival
Summary of the method: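 Read-out is survival time, reported as the treated-group measurement over the vehicle-control measurement.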

[1] = dose: 50.0 mg/kg/injection, schedule: Q01DX001 (ip), vehicle: saline with Tween-80
[2] = dose: 100.0 mg/kg/injection, schedule: Q04DX003 (ip), vehicle: saline with Tween-80
[3] = dose: 200.0 mg/kg/injection, schedule: Q04DX003 (ip), vehicle: saline with Tween-80

`O=NN(CCCl)C(=O)Nc1ccc2oc(=O)c3ccccc3c2c1` was tested. Which T/C (dose: 1.25 mg/kg/injection, schedule: Q01DX001 (ip), vehicle: Klucel (hydroxypropylcellulose) (HPC)) did it give?
The T/C was 123 % of control.

What about the T/C (dose: 2.5 mg/kg/injection, schedule: Q01DX001 (ip), vehicle: Klucel (hydroxypropylcellulose) (HPC)) of the same compound?
Its T/C is 105 % of control.

And the T/C (dose: 5.0 mg/kg/injection, schedule: Q01DX001 (ip), vehicle: Klucel (hydroxypropylcellulose) (HPC))?
The T/C was 112 % of control.

And the T/C (dose: 10.0 mg/kg/injection, schedule: Q01DX001 (ip), vehicle: carboxymethylcellulose (CMC))?
Its T/C is 150 % of control.

What about the T/C (dose: 35.0 mg/kg/injection, schedule: Q01DX001 (ip), vehicle: carboxymethylcellulose (CMC)) of the same compound?
Its T/C is 164 % of control.

What about the T/C (dose: 150.0 mg/kg/injection, schedule: Q01DX001 (ip), vehicle: carboxymethylcellulose (CMC)) of the same compound?
Its T/C is 120 % of control.

What about the T/C (dose: 177.0 mg/kg/injection, schedule: Q01DX009 (ip), vehicle: carboxymethylcellulose (CMC)) of the same compound?
The T/C was 101 % of control.

What about the T/C (dose: 266.0 mg/kg/injection, schedule: Q01DX009 (ip), vehicle: carboxymethylcellulose (CMC)) of the same compound?
Its T/C is 95 % of control.

What about the T/C (dose: 400.0 mg/kg/injection, schedule: Q01DX009 (ip), vehicle: carboxymethylcellulose (CMC)) of the same compound?
Its T/C is 92 % of control.

And the T/C (dose: 600.0 mg/kg/injection, schedule: Q01DX001 (ip), vehicle: carboxymethylcellulose (CMC))?
Its T/C is 152 % of control.

What about the T/C (dose: 600.0 mg/kg/injection, schedule: Q01DX009 (ip), vehicle: carboxymethylcellulose (CMC)) of the same compound?
The T/C was 87 % of control.

With `C#CC(=O)OCC` as the compound, how does the T/C (dose: 12.5 mg/kg/injection, schedule: Q04DX003 (ip), vehicle: saline with Tween-80) read?
Its T/C is 103 % of control.

What about the T/C (dose: 25.0 mg/kg/injection, schedule: Q01DX001 (ip), vehicle: saline with Tween-80) of the same compound?
The T/C was 105 % of control.

And the T/C (dose: 25.0 mg/kg/injection, schedule: Q04DX003 (ip), vehicle: saline with Tween-80)?
Its T/C is 106 % of control.

What about the T/C [1] of the same compound?
The T/C was 108 % of control.

What about the T/C (dose: 50.0 mg/kg/injection, schedule: Q04DX003 (ip), vehicle: saline with Tween-80) of the same compound?
The T/C was 119 % of control.

`COc1ccc(/C(=N\N=C(N)N)C2CC2)cc1` was tested. Which T/C (dose: 120.0 mg/kg/injection, schedule: Q01DX Z (oral), vehicle: carboxymethylcellulose (CMC)) did it give?
Its T/C is 90 % of control.

Which T/C [1] does the source give for `CCCCCCCCCC/C=N/Nc1ccc([N+](=O)[O-])cc1[N+](=O)[O-]` here?
Its T/C is 93 % of control.

And the T/C (dose: 100.0 mg/kg/injection, schedule: Q01DX001 (ip), vehicle: saline with Tween-80)?
Its T/C is 92 % of control.

What about the T/C (dose: 200.0 mg/kg/injection, schedule: Q01DX001 (ip), vehicle: saline with Tween-80) of the same compound?
Its T/C is 93 % of control.

How did the T/C (dose: 50.0 mg/kg/injection, schedule: Q01DX001 (ip), vehicle: carboxymethylcellulose (CMC)) turn out when `Cn1c2ccccc2c(=O)c2c(O)cc3c(c21)C=CC(C)(C)O3` was run?
Its T/C is 98 % of control.

What about the T/C (dose: 100.0 mg/kg/injection, schedule: Q01DX001 (ip), vehicle: carboxymethylcellulose (CMC)) of the same compound?
Its T/C is 90 % of control.

And the T/C (dose: 200.0 mg/kg/injection, schedule: Q01DX001 (ip), vehicle: carboxymethylcellulose (CMC))?
The T/C was 88 % of control.

And the T/C (dose: 400.0 mg/kg/injection, schedule: Q01DX001 (ip), vehicle: carboxymethylcellulose (CMC))?
The T/C was 88 % of control.

Which T/C (dose: 100.0 mg/kg/injection, schedule: Q01DX001 (ip), vehicle: saline) does the source give for `COC(=O)CC1=C(C)CCc2cc3c(cc21)sc1ccccc13` here?
The T/C was 94 % of control.

And the T/C (dose: 200.0 mg/kg/injection, schedule: Q01DX001 (ip), vehicle: saline)?
Its T/C is 94 % of control.

And the T/C (dose: 400.0 mg/kg/injection, schedule: Q01DX001 (ip), vehicle: saline)?
Its T/C is 101 % of control.

With `CCOC(=O)C(=CN(C(C)C)C(C)C)C(=O)OCC` as the compound, how does the T/C (dose: 50.0 mg/kg/injection, schedule: Q01DX009 (ip), vehicle: saline) read?
Its T/C is 100 % of control.

What about the T/C (dose: 100.0 mg/kg/injection, schedule: Q01DX009 (ip), vehicle: saline) of the same compound?
Its T/C is 98 % of control.

What about the T/C [2] of the same compound?
Its T/C is 94 % of control.

What about the T/C (dose: 200.0 mg/kg/injection, schedule: Q01DX009 (ip), vehicle: saline) of the same compound?
Its T/C is 101 % of control.

And the T/C [3]?
Its T/C is 100 % of control.

Which T/C (dose: 50.0 mg/kg/injection, schedule: Q04DX002 (ip), vehicle: saline with Tween-80) does the source give for `Nc1ncnc2oc(-c3ccccc3)c(-c3ccccc3)c12` here?
The T/C was 91 % of control.

What about the T/C (dose: 100.0 mg/kg/injection, schedule: Q04DX002 (ip), vehicle: saline with Tween-80) of the same compound?
Its T/C is 88 % of control.

Which T/C (dose: 100.0 mg/kg/injection, schedule: Q01DX009 (ip), vehicle: saline with Tween-80) does the source give for `CCOc1c(Br)cc(Br)cc1C=O` here?
Its T/C is 97 % of control.

And the T/C [2]?
The T/C was 103 % of control.

What about the T/C (dose: 200.0 mg/kg/injection, schedule: Q01DX009 (ip), vehicle: saline with Tween-80) of the same compound?
Its T/C is 94 % of control.

What about the T/C [3] of the same compound?
The T/C was 109 % of control.

And the T/C (dose: 400.0 mg/kg/injection, schedule: Q01DX009 (ip), vehicle: saline with Tween-80)?
Its T/C is 110 % of control.

What about the T/C (dose: 400.0 mg/kg/injection, schedule: Q04DX003 (ip), vehicle: saline with Tween-80) of the same compound?
The T/C was 103 % of control.

How did the T/C (dose: 100.0 mg/kg/injection, schedule: Q01DX001 (ip), vehicle: acetone) turn out when `CN1CCCC1c1cccc([N+](=O)[O-])c1` (stereo unspecified) was run?
The T/C was 93 % of control.
